Paper PMC10281575, “PfCRT mutations conferring piperaquine resistance in falciparum malaria shape the kinetics of quinoline drug binding and transport” (PLOS Pathogens, 2023)
Positions count from the first letter of the chain named. “Also recorded” adds a separate entry of the source.

Legend:
PfCRT^Dd2 [1] = biological target: T1, PfCRT^Dd2 (Plasmodium falciparum, UniProt Q8IBZ9, A220S/I356T/K76T/M74I/N326S/N75E/Q271E/R371I); design: expressed in transfected cells; host or cells: Xenopus laevis oocytes injected with in vitro transcribed RNA (pSP64T); details: cited from earlier work
T1 sequence (Q8IBZ9 1-424 M74I/N75E/K76T/A220S/Q271E/N326S/I356T/R371I): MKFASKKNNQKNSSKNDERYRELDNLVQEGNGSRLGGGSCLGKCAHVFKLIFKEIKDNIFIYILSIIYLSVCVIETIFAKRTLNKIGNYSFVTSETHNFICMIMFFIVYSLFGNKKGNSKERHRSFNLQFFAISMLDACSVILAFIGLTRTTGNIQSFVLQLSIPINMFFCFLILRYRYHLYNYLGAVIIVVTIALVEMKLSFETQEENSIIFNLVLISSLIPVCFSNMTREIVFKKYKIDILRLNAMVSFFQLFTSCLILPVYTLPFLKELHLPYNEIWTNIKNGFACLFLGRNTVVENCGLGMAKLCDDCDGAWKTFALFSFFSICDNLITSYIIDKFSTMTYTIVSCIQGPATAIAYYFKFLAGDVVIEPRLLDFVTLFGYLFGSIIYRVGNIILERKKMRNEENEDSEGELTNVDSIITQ

PfCRT^Dd2_H97Y = biological target: T2, PfCRT^Dd2_H97Y (Plasmodium falciparum, UniProt Q8IBZ9, A220S/H97Y/I356T/K76T/M74I/N326S/N75E/Q271E/R371I); assay: Verapamil inhibition of PfCRT-mediated CQ and PPQ transport in oocytes, PfCRT^Dd2_H97Y; assay type: cell-based; details: 100 μM verapamil, 50 μM CQ or PPQ
T2 construct: expressed in transfected cells; host or cells: Xenopus laevis oocytes injected with in vitro transcribed RNA (pSP64T)
T2 sequence (Q8IBZ9 1-424 M74I/N75E/K76T/H97Y/A220S/Q271E/N326S/I356T/R371I): T1 sequence (Q8IBZ9 1-424 M74I/N75E/K76T/A220S/Q271E/N326S/I356T/R371I) with H97Y
Experimental: (§1) In all cases, the PfCRT-mediated CQ and PPQ transport was inhibited in the presence of 100 μM verapamil (S3 Fig).
(§2) Drug transport assays were performed as previously described. Briefly, measurements of radiolabeled drug uptake were made over 1 h, unless otherwise specified. […] Where specified, one or more unlabeled drugs were also present at the indicated concentrations. The direction of drug transport in the assays is from the extracellular medium (pH 6) into the oocyte cytosol (pH 7.2), which corresponds to the efflux of CQ or PPQ from the acidic digestive vacuole (pH 5.2) into the parasite cytosol (pH 7.2). The uptake assays were terminated by removing the oocytes from the reaction medium and washing them three times with 2 mL of ice-cold ND96 buffer. Each oocyte was transferred to a separate scintillation vial and lysed by the addition of 200 μL of a 5% SDS solution. The radioactivity in the sample was measured using a liquid scintillation analyser Tri-Carb 4910 TR (PerkinElmer). Water-injected oocytes were analyzed in parallel as a negative control. The buffer from each condition was measured in duplicate in parallel to each experiment to transform counts per minute into pmol of drug. Drug uptake attributable to PfCRT was determined by subtracting the background uptake from water-injected oocytes from that of PfCRT-expressing oocytes. In all cases, at least three independent experiments were performed on oocytes from different frogs, and for each condition in an experiment, measurements were made from 10 oocytes per treatment.
(§3) Supplementary file ppat.1011436.s006.tif: S3 Fig Verapamil inhibits PfCRT-mediated transport of CQ and PPQ. […] Left panels, data is shown as individual biological replicates (coloured symbols) overlaid onto bars representing the Mean ± S.E.M. (error bars). A one-tailed Student’s t-test was performed between untreated (no VP) and treated (+ 100 μM VP) samples, and the obtained p values are shown. Right panels, the uptake in VP-treated samples was divided by the uptake in their corresponding untreated pairs and subtracted from 100% to get the percentage of uptake inhibition mediated by the presence of 100 μM verapamil in the extracellular medium. Error bars are S.E. (TIF) Click here for additional data file.

PfCRT^Dd2_F145I = biological target: T3, PfCRT^Dd2_F145I (Plasmodium falciparum, UniProt Q8IBZ9, A220S/F145I/I356T/K76T/M74I/N326S/N75E/Q271E/R371I); assay: Verapamil inhibition of PfCRT-mediated CQ and PPQ transport in oocytes, PfCRT^Dd2_F145I; assay type: cell-based; details: 100 μM verapamil, 50 μM CQ or PPQ
T3 construct: expressed in transfected cells; host or cells: Xenopus laevis oocytes injected with in vitro transcribed RNA (pSP64T)
T3 sequence (Q8IBZ9 1-424 M74I/N75E/K76T/F145I/A220S/Q271E/N326S/I356T/R371I): T1 sequence (Q8IBZ9 1-424 M74I/N75E/K76T/A220S/Q271E/N326S/I356T/R371I) with F145I
Experimental: as §1
as §2, with “In all cases, at least three independent experiments were performed on oocytes from different frogs, and for each condition in an experiment, measurements were made from 10 oocytes per treatment.” left out

PfCRT^Dd2_M343L = biological target: T4, PfCRT^Dd2_M343L (Plasmodium falciparum, UniProt Q8IBZ9, A220S/I356T/K76T/M343L/M74I/N326S/N75E/Q271E/R371I); assay: Verapamil inhibition of PfCRT-mediated CQ and PPQ transport in oocytes, PfCRT^Dd2_M343L; assay type: cell-based; details: 100 μM verapamil, 50 μM CQ or PPQ
T4 construct: expressed in transfected cells; host or cells: Xenopus laevis oocytes injected with in vitro transcribed RNA (pSP64T)
T4 sequence (Q8IBZ9 1-424 M74I/N75E/K76T/A220S/Q271E/N326S/M343L/I356T/R371I): T1 sequence (Q8IBZ9 1-424 M74I/N75E/K76T/A220S/Q271E/N326S/I356T/R371I) with M343L
Experimental: as §1, §2, §3

PfCRT^Dd2_G353V = biological target: T5, PfCRT^Dd2_G353V (Plasmodium falciparum, UniProt Q8IBZ9, A220S/G353V/I356T/K76T/M74I/N326S/N75E/Q271E/R371I); assay: Verapamil inhibition of PfCRT-mediated CQ and PPQ transport in oocytes, PfCRT^Dd2_G353V; assay type: cell-based; details: 100 μM verapamil, 50 μM CQ or PPQ
T5 construct: expressed in transfected cells; host or cells: Xenopus laevis oocytes injected with in vitro transcribed RNA (pSP64T)
T5 sequence (Q8IBZ9 1-424 M74I/N75E/K76T/A220S/Q271E/N326S/G353V/I356T/R371I): T1 sequence (Q8IBZ9 1-424 M74I/N75E/K76T/A220S/Q271E/N326S/I356T/R371I) with G353V
Experimental: as §1, §2, §3

PfCRT^Dd2 [2] = biological target: T1, PfCRT^Dd2; assay: Verapamil inhibition of PfCRT-mediated CQ and PPQ transport in oocytes, PfCRT^Dd2; assay type: cell-based; design: expressed in transfected cells; host or cells: Xenopus laevis oocytes injected with in vitro transcribed RNA (pSP64T); details: 100 μM verapamil, 50 μM CQ or PPQ
Experimental: as §1, §2, §3

C=C[C@H]1C[N@@]2CC[C@H]1C[C@H]2[C@H](O)c1ccnc2ccc(OC)cc12 [quinine]
inhibition model versus CQ on PfCRT (PfCRT^Dd2 [1]): partial mixed-type inhibition

COc1ccc(CCN(C)CCCC(C#N)(c2ccc(OC)c(OC)c2)C(C)C)cc1OC (stereo not shown) [verapamil]
PfCRT-mediated CQ and PPQ transport in the presence of verapamil (PfCRT^Dd2_H97Y): inhibited | PfCRT-mediated CQ and PPQ transport in the presence of verapamil (PfCRT^Dd2_F145I): inhibited | PfCRT-mediated CQ and PPQ transport in the presence of verapamil (PfCRT^Dd2_M343L): inhibited | PfCRT-mediated CQ and PPQ transport in the presence of verapamil (PfCRT^Dd2_G353V): inhibited | PfCRT-mediated CQ and PPQ transport in the presence of verapamil (PfCRT^Dd2 [2]): inhibited | inhibition model versus CQ on PfCRT (PfCRT^Dd2 [1]): partial mixed-type inhibitor; also recorded: mixed-type inhibition
